{"source": "patent US20220000871A1", "about": "“METHODS AND COMPOSITIONS FOR TREATING NEURODEGENERATIVE DISEASES USING MODULATORS OF PHOSPHOGLYCERATE KINASE 1 (PGK1) ACTIVITY” (UNIVERSITY OF IOWA RESEARCH FOUNDATION, priority 2019, published 2022)", "key": {"[1]": {"system": "Hek293T cells expressing APPswe-GFP", "assay": "Hek293T cells transfected with APPswe-GFP", "format": "cell-based", "details": "24 hours", "from_the_text": "FIG. 22. Expression of amyloid precursor protein (APP) Swedish mutation tagged with GFP (APPswe-GFP) in transfected Hek293T cells. Left panel—expression of GFP in cells treated with alfazosin (AZ). Right panel—relative intensity versus treatment with increasing concentrations of AZ.\nFIG. 23. Western blot quantification of APPswe-GFP in transfected Hek293T cells treated with increasing concentration of alfazosin (AZ).\nWe also studied Hek293T cells that were transfected with the amyloid precursor protein (APP) Swedish mutation tagged with GFP (APPswe-GFP). (See FIG. 22). After transfection, AZ (1-10 μM) was added for 24 hours. The GFP intensity without AZ treatment was set as 1.\nAZ (1-100 μM) was added for 24 hours to Hek293T cells expressing APPswe-GFP. Then, cell lysates were collected for protein quantification by western blot. (See FIG. 23). The APP/actin ratio was plotted."}, "[2]": {"system": "M17 human neuroblastoma cells", "assay": "Glycolysis and mitochondrial function in M17 cells", "details": "in vitro, 10 μM, 24 hr (ECAR)", "experimental": "Cells were incubated with mild hypoxia for 12 hr before study. Cells were cultured in a sealed chamber (Stemcell Technologies Vancouver, Canada) that was flushed with a humidified gas mixture composed of 5% 02, 5% carbon dioxide (CO2), and 90% nitrogen (N2) for 12 hr. […] Assays of ATP, pyruvate, and citrate synthase activities (CS) were performed according to the manufacturer's instructions.\nA Seahorse XV analyzer (XF^e-24, Seahorse Bioscience, Billerica, Mass., USA) was used to measure the oxygen consumption rate (OCR) and the extracellular acidification rate (ECAR) as previously described (18). The M17 cells and iPS cells were seeded in XF^e 24-well plates (Seahorse Bioscience), while the plates used for iPS cells were poly-D-lysine pre-coated. Assay medium was prepared by supplementing Seahorse XF^eBaseMedium minimal DMEM (Seahorse Bioscience) with 2 mM L-glutamine for a Glycolysis Stress Test assay or 2 mM L-glutamine, 1 mM pyruvate and 10 mM glucose for a Mito Stress Test assay (Sigma). pH was adjusted to 7.4 at 37° C. Probes (Seahorse Bioscience) were hydrated in the calibrant (Seahorse Bioscience) in a non-CO2 incubator at 37° C. overnight. Cells were washed twice with assay medium and kept in a non-CO2 incubator at 37° C. for 1 hr before analysis. Glucose, oligomycin and 2-deoxy-glucose (2-DG) were pre-loaded in the probe plate for Glycolysis Stress Test, while oligomycin, FCCP and a mixture of rotenone and antimycin A were used for Mito Stress Test.\nCitrate synthase (CS) activity, LDH assay and pyruvate level were detected using commercial kits according to the manufacturer's directions. ATP content in animal tissues and M17 cells were detected with the ATP assay kit following the manufacturer's directions."}, "[3]": {"system": "MPTP-treated mice", "assay": "MPTP mouse model", "format": "in vivo", "details": "SNc, western blot, FIG. 17B", "description": "A) Schematic for experiments in panels B-K. C57BL/6 mice (8 week-old) received 4 i.p. injections of MPTP (20 mg/kg at 2 hr intervals) or vehicle on day 0. […] N=6. […] Quantification of TH protein normalized to control (C,D). N=6. E-G) Example of immunostaining of TH in SNc and striatum (E, scale bars, 500 μm SNc, 1 mm striatum). Quantification of TH-positive neurons in SNc (F) and TH intensity in the striatum (G). N=6. H,I) Dopamine (DA) content in striatum and SnC. N=6. J) Percentage of TH-positive neurons that were positive for TUNEL staining. N=6. K) Behavioral response of mice in rotarod test. Data are duration that mice remained on an accelerated rolling rod normalized to mice at day 0. N=8. Data are examples and mean±SEM. […] Statistical analysis at day 7 and day 14 was Mann-Whitney. In the figure, *p<0.05, **p<0.01.\nFIG. 10. […] A) Schematic of experiments in panels B-F. C57BL/6 mice (8 week-old) received 4 i.p. injections of MPTP (20 mg/kg at 2 hr intervals) or vehicle on day 0. […] B,C) Pyruvate and ATP levels in mouse SNc. N=6. D) Mitochondrial DNA (mDNA, 16S and ND1) relative to nuclear DNA (nDNA, intron β-globin) by quantitative PCR of mouse striatum and SNc. N=3. E,F) VDAC (E) and PHB1 (F) protein levels in striatum and SNc assayed by western blot and normalized to control. N=6.\nFIG. 12. […] A) Schematic for experiments in panels B-J. C57BL/6 mice (8 week-old) received 4 i.p. injections of MPTP (20 mg/kg at 2 hr intervals) or vehicle on day 0. […] B) Example of TH immunostaining in the SNc on days 7 and 14. Scale bar, 500 μm. C-F) Measurement of DOPAC in mouse striatum (C) and SNc (D) and measurement of HVA in striatum (E) and SNc (F). (N=6). G) Example of TH and TUNEL co-staining in the SNc. TH (green), TUNEL (red), and DAPI (nuclei, blue). Scale bar, 25 μm. Quantitative data are in FIG. 2J. H) Left panels are Nissl staining of neurons in the striatum. Samples were obtained 7 days after MPTP injection. Right panels show the quantification. […] Scale bar, 400 μm. N=3 per group. I,J) Behavioral response of mice in the pole test. (I) Time mice took to turn their heads from upward to downward. (J) Time mice took to climb down the pole. N=8.\nMPTP was injected (i.p.) on one day at 20 mg/kg for four times at 2-hour intervals, as previously described (4). […] At the end of the drug or saline treatment, behavioral tests including rotarod test and pole test were carried out before the animals were sacrificed.\nThe rotarod test was carried out using an automated rotarod (E103, UGO BASILE). At a fixed speed of 15 revolutions per minute (rpm), mice were pre-trained for two consecutive days until they were able to remain on the rod for more than 60 seconds. […] The latency to fall was recorded for a maximum recording time of 600 seconds. The behavior was monitored by a video camera.\nThis test was carried out by leaving a pole in the cage where the mice were housed. The pole test was performed on the 14th day after MPTP injection as previously described (9). The mouse was placed in a head-upward position on top of a vertical pole (diameter 8 mm, height 55 cm) with a ball (diameter 2.5 cm) on the head of the pole. The pole was wrapped with the nylon gauze to prevent the mouse from slipping down. Each mouse was trained twice before testing. The time that the mouse took to turn his head from upward to downward (Time: Turn) and the time the mouse took to reach the floor with his forepaws (Time: Locomotion Activity) were recorded. Each mouse was tested three times with 5 min. intervals, and the average time was quantified."}, "[4]": {"system": "Hela cell stably expressed FUS-GFP", "assay": "Hela cells stably expressing FUS-GFP", "format": "cell-based", "from_the_text": "FIG. 19. Relative ATP levels in Hela cells expressing FUS-GTP after treatment with alfazosin (AZ) and rotenone (Rot).\nFIG. 20. Expression levels of FUS-GTP in cells treated with alfazosin (AZ), rotenone (Rot), and 17AAG, an inhibitor of the ATPase of HSP90.\nFIG. 21. Fluorescence recovery of FUS-GTP in Hela cells after photobleaching.\nWe studied Hela cell stably expressed FUS-GFP to determine whether alfazosin (AZ) affected the molecule biology of FUS. (See FIG. 19). FUS forms phase-separated aggregates in cells and is commonly used to test agents that enhance or inhibit aggregate formation. The cells were maintained under mild hypoxic condition (5% oxygen), in which mitochondria function at their highest level. Alfazosin (AZ) was added in the culture medium with or without rotenone, a mitochondrial respiration inhibitor. 60 hours later, we measured the ATP level. The control (without AZ) is set as 1 (N=3).\nWe quantified FUS-GFP protein levels using actin as a protein loading control. (See FIG. 20). Rotenone (Rot) is a mitochondrial respiration inhibitor, 17AAG is an inhibitor of the ATPase of HSP90. The control level of FUS/actin is set as 1, and relative ratio of other treatment is compared.\n(See FIG. 21). After 30 seconds photobleaching, the recovery of GFP signal was measured and plotted. N=10."}}}
{"smiles": "COc1cc2nc(N(C)CCCNC(=O)C3CCCO3)nc(N)c2cc1OC", "note": "(stereo not drawn) [alfuzosin]", "values": [{"measurement": "aggregation of APPswe-GFP (GFP intensity)", "setting": "[1]; AZ 1-10 μM", "value": "decrease"}, {"measurement": "APPswe-GFP levels (APP/actin ratio, western blot)", "setting": "[1]; AZ 1-100 μM", "value": "reduces"}, {"measurement": "glycolysis", "setting": "[2]", "value": "increased"}, {"measurement": "tyrosine hydroxylase levels in MPTP-treated mice", "setting": "[3]", "value": "increased"}, {"measurement": "ATP increase with rotenone", "setting": "[4]; 5% oxygen, 60 hours, with rotenone", "value": "abolished"}, {"measurement": "ATP level", "setting": "[4]; 5% oxygen, 60 hours, without rotenone", "value": "increases"}, {"measurement": "FUS-GFP protein levels", "setting": "[4]; FUS/actin, western", "value": "reduced"}]}
{"smiles": "COc1cc2nc(N3CCN(C(=O)C4COc5ccccc5O4)CC3)nc(N)c2cc1OC", "note": "(stereo not drawn) [doxazosin]", "values": [{"measurement": "glycolysis", "setting": "[2]", "value": "increased"}, {"measurement": "tyrosine hydroxylase levels in MPTP-treated mice", "setting": "[3]", "value": "increased"}]}
